Experimental data taken from ChEMBL document CHEMBL1143225, “Neurosteroid analogues. 14. Alternative ring system scaffolds: GABA modulatory and anesthetic actions of cyclopenta[b]phenanthrenes and cyclopenta[b]anthracenes” (J Med Chem, 2008).
The source made the active and inactive calls. No cut-off for these calls is given here.

Columns and labels:
[1] = Displacement of [35S]TBPS from GABAA receptor in rat brain membrane; assay type: cell membranes
Oocyte [2] = experiment: Activity at rat GABAA alpha-1-beta-2-gamma-2L receptor expressed in Xenopus lavies oocytes assessed as ratio of effect on current at 1 uM drug to absence of compound by electrophysiology method; assay type: cell-based
Oocyte [3] = experiment: Activity at rat GABAA alpha-1-beta-2-gamma-2L receptor expressed in Xenopus lavies oocytes assessed as ratio of effect on current at 0.1 uM drug to absence of compound by electrophysiology method; assay type: cell-based
Oocyte [4] = experiment: Activity at rat GABAA alpha-1-beta-2-gamma-2L receptor expressed in Xenopus lavies oocytes assessed as ratio of effect on current at 10 uM drug to absence of compound by electrophysiology method; assay type: cell-based
Oocyte [5] = experiment: Activity at rat GABAA alpha-1-beta-2-gamma-2L receptor expressed in Xenopus laevis oocytes assessed as gating effect at 10 uM by electrophysiology method; assay type: cell-based
Xenopus laevis [6] = experiment: Anesthetic effect on Xenopus lavies tadpole assessed as loss of righting reflex; assay type: functional
Xenopus laevis [7] = experiment: Anesthetic effect on Xenopus lavies tadpole assessed as loss of swimming reflex; assay type: functional
[8] = (§1) Activity at rat GABAA alpha-1-beta-2-gamma-2L receptor expressed in HEK293 cells assessed as macroscopic current amplitude by electrophysiological method; assay type: cell-based
HEK293 [9] = experiment: as §1; assay type: cell-based
[10] = (§2) Activity at rat GABAA alpha-1Q241L/Y410F receptor mutant expressed in HEK293 cells assessed as macroscopic current amplitude by electrophysiological method; assay type: cell-based
HEK293 [11] = experiment: as §2; assay type: cell-based
Xenopus laevis [12] = experiment: Anesthetic effect on Xenopus lavies tadpole assessed as loss of swimming reflex at 10 uM; assay type: functional, organism-based

SMILES: C[C@]12CC[C@@H]3C[C@H](CCO)CC[C@H]3[C@@H]1CC[C@@]21CO1
- IC50 [1]: 1580 nM
- Ratio (Oocyte [2]): 4.11
- Ratio (Oocyte [3]): 1.1
- Ratio (Oocyte [4]): 20
- Ratio (Oocyte [5]): 0.04
- ED50 (Xenopus laevis [6]): 3170 nM
- ED50 (Xenopus laevis [7]): 5480 nM

SMILES: C[C@]12CC[C@@H](O)C[C@@H]1CC[C@@H]1[C@@H]2CC[C@@]2(C)[C@H]1CC[C@@]21CO1
- IC50 [1]: 110 nM
- Ratio (Oocyte [2]): 21.9
- Ratio (Oocyte [3]): 3.11
- Ratio (Oocyte [4]): 33.7
- Ratio (Oocyte [5]): 0.22
- ED50 (Xenopus laevis [6]): 1350 nM
- ED50 (Xenopus laevis [7]): 2760 nM
- EC50 [8]: 440 nM
- Activity (HEK293 [9]): 269%
- EC50 [10]: 130 nM
- Activity (HEK293 [11]): 251%

SMILES: C[C@]12C[C@H]3CC[C@H](CCO)C[C@@H]3C[C@@H]1CC[C@@]21CO1
- IC50 [1]: 1170 nM
- Ratio (Oocyte [2]): 1.54
- Ratio (Oocyte [3]): 0.86
- Ratio (Oocyte [4]): 5.37
- Ratio (Oocyte [5]): 0.03
- ED50 (Xenopus laevis [6]): 3460 nM
- Activity (Xenopus laevis [12]): inactive

SMILES: C[C@]12C[C@H]3CC[C@@H]4C[C@@H](O)CC[C@H]4[C@@H]3C[C@@H]1CC[C@@]21CO1
- IC50 [1]: 40 nM
- Ratio (Oocyte [2]): 15.7
- Ratio (Oocyte [3]): 2.16
- Ratio (Oocyte [4]): 29.7
- Ratio (Oocyte [5]): 0.15
- ED50 (Xenopus laevis [6]): 200 nM
- ED50 (Xenopus laevis [7]): 870 nM
- EC50 [8]: 340 nM
- Activity (HEK293 [9]): 262%
- EC50 [10]: 130 nM
- Activity (HEK293 [11]): 220%

SMILES: C[C@]12C[C@H]3C[C@H]4CC[C@@H](O)C[C@@H]4C[C@@H]3C[C@@H]1CC[C@@]21CO1
- IC50 [1]: 60 nM
- Ratio (Oocyte [2]): 10.8
- Ratio (Oocyte [3]): 1.53
- Ratio (Oocyte [4]): 26.3
- Ratio (Oocyte [5]): 0.16
- ED50 (Xenopus laevis [6]): 480 nM
- ED50 (Xenopus laevis [7]): 1730 nM
- EC50 [8]: 410 nM
- Activity (HEK293 [9]): 294%
- EC50 [10]: 390 nM
- Activity (HEK293 [11]): 237%

SMILES: C[C@]12C[C@H]3CC[C@H](CCO)C[C@@H]3C[C@@H]1CCC2=O
- IC50 [1]: 5010 nM
- Ratio (Oocyte [2]): 1
- Ratio (Oocyte [3]): 1
- Ratio (Oocyte [4]): 2.42
- Ratio (Oocyte [5]): -0.02
- ED50 (Xenopus laevis [6]): 4010 nM
- Activity (Xenopus laevis [12]): inactive

SMILES: C[C@]12CC[C@@H]3C[C@H](CCO)CC[C@H]3[C@@H]1CCC2=O
- IC50 [1]: 4170 nM
- Ratio (Oocyte [2]): 1.03
- Ratio (Oocyte [3]): 0.99
- Ratio (Oocyte [4]): 1.05
- Ratio (Oocyte [5]): 0.03
- ED50 (Xenopus laevis [6]): 16400 nM
- Activity (Xenopus laevis [12]): inactive

SMILES: C[C@]12CC[C@@H](O)C[C@@H]1CC[C@@H]1[C@@H]2CC[C@]2(C)C(=O)CC[C@@H]12 [ANDROSTERONE]
- IC50 [1]: 410 nM
- Ratio (Oocyte [2]): 1.41
- Ratio (Oocyte [3]): 0.97
- Ratio (Oocyte [4]): 5.44
- Ratio (Oocyte [5]): 0.02
- ED50 (Xenopus laevis [6]): 3380 nM
- Activity (Xenopus laevis [12]): inactive

SMILES: C[C@]12C[C@H]3C[C@H]4CC[C@@H](O)C[C@@H]4C[C@@H]3C[C@@H]1CCC2=O
- IC50 [1]: 250 nM
- Ratio (Oocyte [2]): 5.03
- Ratio (Oocyte [3]): 1.1
- Ratio (Oocyte [4]): 28.4
- Ratio (Oocyte [5]): 0.28
- ED50 (Xenopus laevis [6]): 1860 nM
- ED50 (Xenopus laevis [7]): 5480 nM

SMILES: C[C@]12C[C@H]3CC[C@@H]4C[C@@H](O)CC[C@H]4[C@@H]3C[C@@H]1CCC2=O
- IC50 [1]: 1440 nM
- Ratio (Oocyte [2]): 1.32
- Ratio (Oocyte [3]): 0.92
- Ratio (Oocyte [4]): 6.14
- Ratio (Oocyte [5]): 0.05
- ED50 (Xenopus laevis [6]): 3170 nM
- Activity (Xenopus laevis [12]): inactive
